In article PMC3795843 (Journal of molecular biology, 2013):

Columns and labels:
Sub2p = molecular target: T1, Sub2p (Saccharomyces cerevisiae, UniProt Q07478); test: inhibition of RNA duplex unwinding, native PAGE; format: biochemical; conditions: 0.5 mM nucleotide, 0.5 mM ATP, 10 mM Tris pH 7.0, 50 mM KCl, 30 °C
T1 sequence (Q07478 2-446): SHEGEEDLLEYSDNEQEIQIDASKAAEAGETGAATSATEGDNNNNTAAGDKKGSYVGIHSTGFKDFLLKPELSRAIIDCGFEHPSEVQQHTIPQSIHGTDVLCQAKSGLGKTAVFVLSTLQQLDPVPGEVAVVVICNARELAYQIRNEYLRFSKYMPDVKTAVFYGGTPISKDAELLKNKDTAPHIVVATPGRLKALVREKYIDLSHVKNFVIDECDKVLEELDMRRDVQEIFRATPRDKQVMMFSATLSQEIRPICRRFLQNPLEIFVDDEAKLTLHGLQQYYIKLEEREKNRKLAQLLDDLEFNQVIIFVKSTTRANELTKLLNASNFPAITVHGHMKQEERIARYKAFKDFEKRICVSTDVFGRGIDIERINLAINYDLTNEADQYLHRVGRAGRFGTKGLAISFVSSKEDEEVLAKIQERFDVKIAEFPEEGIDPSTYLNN

Dbp5p = molecular target: T2, Dbp5p (Saccharomyces cerevisiae, UniProt P20449); test: inhibition of RNA duplex unwinding, native PAGE; format: biochemical; conditions: 0.5 mM nucleotide, 0.5 mM ATP, 40 mM Hepes pH 7.5, 30 °C
T2 sequence (P20449 1-482): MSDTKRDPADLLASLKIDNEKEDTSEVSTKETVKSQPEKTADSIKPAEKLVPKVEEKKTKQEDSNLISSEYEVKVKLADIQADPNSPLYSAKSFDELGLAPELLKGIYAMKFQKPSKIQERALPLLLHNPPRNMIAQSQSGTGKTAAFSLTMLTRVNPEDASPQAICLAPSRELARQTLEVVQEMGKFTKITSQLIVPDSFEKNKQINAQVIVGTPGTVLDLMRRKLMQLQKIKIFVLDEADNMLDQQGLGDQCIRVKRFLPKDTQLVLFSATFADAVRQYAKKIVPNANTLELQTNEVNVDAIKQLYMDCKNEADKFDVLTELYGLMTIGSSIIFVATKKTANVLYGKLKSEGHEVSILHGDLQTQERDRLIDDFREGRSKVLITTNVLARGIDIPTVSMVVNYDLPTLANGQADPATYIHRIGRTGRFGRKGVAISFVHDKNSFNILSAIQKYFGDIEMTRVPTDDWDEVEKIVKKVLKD

Ded1p = Ded1p (Saccharomyces cerevisiae, UniProt P06634); test: fluorescence competition with mantADP; format: binding; conditions: no RNA; pH 8.0, 50 mM NaCl, 0.5 mM excess Mg2+, 19 °C
Sequence of Ded1p (P06634 2-604): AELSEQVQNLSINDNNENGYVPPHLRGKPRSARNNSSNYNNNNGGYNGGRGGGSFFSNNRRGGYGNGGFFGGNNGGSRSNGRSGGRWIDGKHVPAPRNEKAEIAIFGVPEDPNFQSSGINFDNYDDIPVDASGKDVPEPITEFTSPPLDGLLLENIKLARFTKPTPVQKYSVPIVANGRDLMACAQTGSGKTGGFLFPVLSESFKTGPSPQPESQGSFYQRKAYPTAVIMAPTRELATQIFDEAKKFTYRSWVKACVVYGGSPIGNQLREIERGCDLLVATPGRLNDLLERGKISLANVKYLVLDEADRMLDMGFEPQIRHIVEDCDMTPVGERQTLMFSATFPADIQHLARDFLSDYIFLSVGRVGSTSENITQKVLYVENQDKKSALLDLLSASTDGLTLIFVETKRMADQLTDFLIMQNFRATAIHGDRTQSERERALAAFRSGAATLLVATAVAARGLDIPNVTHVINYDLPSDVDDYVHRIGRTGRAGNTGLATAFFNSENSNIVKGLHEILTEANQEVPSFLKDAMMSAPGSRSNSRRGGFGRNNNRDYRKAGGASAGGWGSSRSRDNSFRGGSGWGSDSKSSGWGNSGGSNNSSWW

Row | Compound | kunw (Sub2p) | kunw (Dbp5p) | K1/2 (Ded1p)
1 | Nc1ncnc2c1ncn2[C@@H]1O[C@H](COP(=O)(O)OP(=O)(O)O)[C@@H](O)[C@H]1O [ADP] | Sub2p and Dbp5p showed only significant inhibition by ADP | Sub2p and Dbp5p showed only significant inhibition by ADP | –
2 | Nc1ncnc2c1ncn2[C@@H]1O[C@H](COP(=O)(O)OP(=O)(O)OP(=O)(O)O)[C@@H](O)[C@H]1O [ATP] | – | – | Binding of ATP (red), ADP (blue), and AMP (green) to Ded1p in the absence of RNA
